Experiment [1] has as its target T1, Neuronal acetylcholine receptor; alpha3/beta4 (Homo sapiens, UniProt P30926+P32297). Kind of experiment: Agonist activity at human alpha-3-beta-4 ACHR expressed in HEK293 cells assessed as change in intracellular calcium concentration by FLIPR. Format: functional, cell-based.
The target in experiment [2] is T2, Neuronal acetylcholine receptor; alpha4/beta2 (Homo sapiens, UniProt P17787+P43681). The experiment in a line: Maximal agonist activity on human alpha-4-beta-2 ACHR expressed in HEK293 cells assessed as change in intracellular calcium concentration by FLIPR relative to nicotine. The experiment is classed as functional, cell-based.
In experiment [3] the target is Neuronal acetylcholine receptor; alpha4/beta2 (Rattus norvegicus, UniProt P09483+P12390). Kind of experiment: Displacement of [3H]cytisine from alpha-4-beta-2 ACHR in rat brain homogenate. The experiment is classed as tissue-based. For orientation: Displacement assays read how much labelled ligand stays bound in the presence of the test substance.
Experiment [4] has as its target T1, Neuronal acetylcholine receptor; alpha3/beta4. Kind of experiment: Maximal agonist activity at human alpha-3-beta-4 ACHR expressed in HEK293 cells assessed as change in intracellular calcium concentration by FLIPR relative to nicotine. The experiment is classed as functional, cell-based. Background: Calcium assays in cells follow changes in intracellular calcium, usually with a dye or a luminescent sensor.

Experiment [5] deals with T2, Neuronal acetylcholine receptor; alpha4/beta2. Kind of experiment: Agonist activity at human alpha4beta2 ACHR expressed in HEK293 cells assessed as change in intracellular calcium concentration by FLIPR. The experiment is classed as functional, cell-based.
Experiment [6] has as its system Rattus norvegicus. Kind of experiment: Induction of behavioral side effects in rat formalin model upto 19 umol/kg, […]. Format: functional, organism-based.

pEC50, pKi: −log10 of the molar value. Activity calls are given as the source filed them. The rule behind the calls is not given here.

T1 sequence (P30926 whole entry): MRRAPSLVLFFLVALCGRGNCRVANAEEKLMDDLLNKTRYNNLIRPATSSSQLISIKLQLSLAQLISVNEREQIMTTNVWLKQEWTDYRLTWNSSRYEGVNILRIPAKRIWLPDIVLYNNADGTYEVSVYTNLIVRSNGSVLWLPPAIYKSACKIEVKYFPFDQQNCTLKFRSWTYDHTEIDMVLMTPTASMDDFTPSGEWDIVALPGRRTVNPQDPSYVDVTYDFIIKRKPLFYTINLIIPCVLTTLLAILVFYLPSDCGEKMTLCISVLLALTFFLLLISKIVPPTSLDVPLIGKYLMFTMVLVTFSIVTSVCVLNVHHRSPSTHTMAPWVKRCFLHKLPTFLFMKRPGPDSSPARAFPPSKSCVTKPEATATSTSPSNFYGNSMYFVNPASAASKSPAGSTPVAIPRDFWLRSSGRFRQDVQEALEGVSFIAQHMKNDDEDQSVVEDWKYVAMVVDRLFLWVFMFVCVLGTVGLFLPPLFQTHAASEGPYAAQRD
T1 sequence (P32297 whole entry): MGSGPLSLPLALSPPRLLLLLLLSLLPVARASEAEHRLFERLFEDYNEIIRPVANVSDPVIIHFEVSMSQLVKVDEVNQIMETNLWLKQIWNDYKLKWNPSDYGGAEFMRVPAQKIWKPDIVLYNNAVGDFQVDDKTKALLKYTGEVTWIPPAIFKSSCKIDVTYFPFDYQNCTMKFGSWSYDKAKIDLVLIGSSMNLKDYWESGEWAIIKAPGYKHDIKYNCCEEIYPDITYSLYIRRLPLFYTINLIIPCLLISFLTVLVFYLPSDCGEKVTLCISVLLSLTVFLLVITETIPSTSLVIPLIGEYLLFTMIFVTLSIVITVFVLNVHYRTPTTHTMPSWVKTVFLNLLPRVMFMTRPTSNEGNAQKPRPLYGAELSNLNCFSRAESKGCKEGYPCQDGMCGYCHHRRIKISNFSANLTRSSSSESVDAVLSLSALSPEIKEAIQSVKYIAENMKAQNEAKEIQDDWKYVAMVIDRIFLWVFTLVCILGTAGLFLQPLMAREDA
T2 sequence (P17787 whole entry): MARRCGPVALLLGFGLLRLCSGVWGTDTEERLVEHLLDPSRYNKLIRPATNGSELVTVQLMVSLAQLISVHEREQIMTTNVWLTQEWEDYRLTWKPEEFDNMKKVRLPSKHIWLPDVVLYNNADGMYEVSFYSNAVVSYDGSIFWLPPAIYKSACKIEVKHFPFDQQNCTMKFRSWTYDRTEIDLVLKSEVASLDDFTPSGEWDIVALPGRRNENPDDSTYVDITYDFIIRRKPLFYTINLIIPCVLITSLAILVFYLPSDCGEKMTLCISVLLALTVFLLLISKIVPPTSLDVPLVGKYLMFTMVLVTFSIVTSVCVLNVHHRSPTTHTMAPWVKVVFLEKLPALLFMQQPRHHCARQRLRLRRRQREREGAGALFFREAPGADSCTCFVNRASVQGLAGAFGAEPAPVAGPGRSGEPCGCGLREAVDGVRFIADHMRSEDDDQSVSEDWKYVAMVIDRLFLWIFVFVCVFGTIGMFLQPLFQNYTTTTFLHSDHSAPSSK
T2 sequence (P43681 whole entry): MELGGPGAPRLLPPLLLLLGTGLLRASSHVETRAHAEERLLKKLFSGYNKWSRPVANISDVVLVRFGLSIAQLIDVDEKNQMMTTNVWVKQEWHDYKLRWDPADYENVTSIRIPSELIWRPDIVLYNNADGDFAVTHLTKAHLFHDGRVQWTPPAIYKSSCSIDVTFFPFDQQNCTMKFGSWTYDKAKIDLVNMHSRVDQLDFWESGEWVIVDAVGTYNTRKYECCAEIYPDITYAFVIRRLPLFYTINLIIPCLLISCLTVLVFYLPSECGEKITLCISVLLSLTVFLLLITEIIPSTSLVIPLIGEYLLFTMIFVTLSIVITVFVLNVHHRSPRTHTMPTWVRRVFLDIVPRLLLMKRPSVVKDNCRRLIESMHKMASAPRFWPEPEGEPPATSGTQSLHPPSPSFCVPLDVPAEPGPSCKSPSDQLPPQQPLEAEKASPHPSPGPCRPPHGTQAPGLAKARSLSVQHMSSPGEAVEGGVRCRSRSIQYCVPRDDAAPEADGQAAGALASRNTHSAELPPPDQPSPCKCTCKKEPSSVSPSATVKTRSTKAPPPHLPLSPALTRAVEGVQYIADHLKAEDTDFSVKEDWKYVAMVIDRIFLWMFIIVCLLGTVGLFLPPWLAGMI
Sequence of Neuronal acetylcholine receptor; alpha4/beta2 (Rattus norvegicus, UniProt P09483+P12390) (P09483 whole entry): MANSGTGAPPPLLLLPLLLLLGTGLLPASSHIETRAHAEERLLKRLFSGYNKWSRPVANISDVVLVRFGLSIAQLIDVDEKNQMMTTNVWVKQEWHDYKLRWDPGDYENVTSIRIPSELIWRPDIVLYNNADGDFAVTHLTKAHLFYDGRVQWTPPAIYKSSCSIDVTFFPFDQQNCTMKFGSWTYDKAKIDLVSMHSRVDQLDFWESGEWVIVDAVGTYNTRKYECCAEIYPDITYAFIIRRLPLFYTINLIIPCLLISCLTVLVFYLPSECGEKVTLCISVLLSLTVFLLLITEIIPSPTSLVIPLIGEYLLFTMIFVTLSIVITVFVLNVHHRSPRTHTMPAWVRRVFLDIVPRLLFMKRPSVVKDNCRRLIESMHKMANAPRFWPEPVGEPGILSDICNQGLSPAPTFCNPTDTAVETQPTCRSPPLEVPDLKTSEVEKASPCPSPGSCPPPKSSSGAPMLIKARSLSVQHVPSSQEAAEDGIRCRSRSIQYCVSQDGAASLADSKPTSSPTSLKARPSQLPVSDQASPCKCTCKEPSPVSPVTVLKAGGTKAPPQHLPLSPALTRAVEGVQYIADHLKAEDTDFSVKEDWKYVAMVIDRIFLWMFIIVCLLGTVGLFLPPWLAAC
Sequence of Neuronal acetylcholine receptor; alpha4/beta2 (Rattus norvegicus, UniProt P09483+P12390) (P12390 whole entry): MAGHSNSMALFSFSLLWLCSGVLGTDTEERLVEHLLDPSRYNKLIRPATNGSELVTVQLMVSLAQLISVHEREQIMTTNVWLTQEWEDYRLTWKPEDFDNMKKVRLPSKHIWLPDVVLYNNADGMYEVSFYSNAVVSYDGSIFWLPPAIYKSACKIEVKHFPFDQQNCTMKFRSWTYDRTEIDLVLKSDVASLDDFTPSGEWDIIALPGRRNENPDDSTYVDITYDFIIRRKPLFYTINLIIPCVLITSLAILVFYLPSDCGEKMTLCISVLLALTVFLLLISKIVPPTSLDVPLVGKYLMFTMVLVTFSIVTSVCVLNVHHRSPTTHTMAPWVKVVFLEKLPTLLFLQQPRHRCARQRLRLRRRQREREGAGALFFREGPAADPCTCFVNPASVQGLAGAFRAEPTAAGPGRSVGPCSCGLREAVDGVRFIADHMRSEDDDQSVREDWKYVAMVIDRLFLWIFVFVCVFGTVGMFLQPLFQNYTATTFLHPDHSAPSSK

`N#Cc1cncc(N2C[C@@H]3CCNC[C@@H]32)c1`: the negative logarithm of the EC50 (pEC50) in experiment [1] is 5.59; in experiment [5], 5.66. For the same compound, the values for the Activity in experiment [2] and in experiment [4] were 64% and 91%, respectively. For the same compound, in experiment [3], the negative-log Ki (pKi) was 9.30.
`Brc1cncc(N2CC[C@@H]3CN[C@@H]3C2)c1` (single isomer, unassigned): the pEC50 in experiment [1] is 6.02; in experiment [5], 6.00. Further, the Activity was 58% in experiment [2] and 91% in experiment [4]. Further, the negative logarithm of the Ki (pKi) in experiment [3] was 10.28.
Turning to `Clc1cc(N2CC[C@H]3CN[C@H]3C2)cnc1Cl`, the pEC50 in experiment [1] was 8.00; in experiment [5] it was 7.92. Also, the Activity in experiment [2] was determined as 221%; in experiment [4] it was 132%. Further, in experiment [3], the negative logarithm of the Ki (pKi) is 10.60.
In the case of `Brc1cncc(N2CC[C@H]3CN[C@H]3C2)c1`, the pEC50 is 7.12 in experiment [1] and 6.82 in experiment [5]. Also, the results for the Activity in experiment [2] and in experiment [4] were 148% and 122%, respectively. Moreover, the pKi in experiment [3] was 10.62.
`c1ncc(N2CC[C@@H]3CN[C@@H]3C2)cn1`: the results for the pEC50 in experiment [1] and in experiment [5] were 5.99 and 5.36, respectively. For the same compound, the Activity in experiment [2] came out at 79%; in experiment [4], 106%. Besides, in experiment [3], the negative-log Ki (pKi) is 9.70.
For `COc1cc(N2CC[C@H]3CN[C@H]3C2)cnc1Br`, the pEC50 is 8.10 in experiment [1] and 7.68 in experiment [5]. The Activity was determined as 217% in experiment [2] and 120% in experiment [4]. This compound also gave a pKi in experiment [3] of 10.57.
Take `Cc1cc(N2CC[C@@H]3CN[C@@H]3C2)cnc1Cl`: the values for the negative logarithm of the EC50 (pEC50) in experiment [1] and in experiment [5] were 7.15 and 7.33, respectively. The Activity was 90% in experiment [2] and 103% in experiment [4]. This compound also showed a negative logarithm of the Ki (pKi) in experiment [3] of 10.43. The outcome in experiment [6] was inactive.
Regarding `Clc1ccc(N2CC[C@@H]3CN[C@@H]3C2)nn1`, the results for the negative logarithm of the EC50 (pEC50) in experiment [1] and in experiment [5] were 6.40 and 6.44, respectively. The Activity in experiment [2] was 129%; in experiment [4], 113%. The negative logarithm of the Ki (pKi) in experiment [3] is 8.57. In addition, in experiment [6], the result was Active.
On to `Clc1ccc(N2CC[C@H]3CN[C@H]3C2)nn1`, for which the pEC50 in experiment [1] is 7.19; in experiment [5], 7.11. The Activity in experiment [2] was determined as 222%; in experiment [4], 128%. In experiment [3], this compound showed a negative-log Ki (pKi) of 9.82.
Consider `N#Cc1cc(N2CC[C@H]3CN[C@H]3C2)cnc1Br`, for which the pEC50 in experiment [1] is 8.36; in experiment [5], 8.21. Besides, the values for the Activity in experiment [2] and in experiment [4] were 215% and 133%, respectively. The compound further had a negative logarithm of the Ki (pKi) in experiment [3] of 10.57.
For the compound `COc1cncc(N2C[C@H]3CCNC[C@H]32)c1`, the pEC50 in experiment [1] is 5.36; in experiment [5], 5.96. The Activity in experiment [2] came out at 104%; in experiment [4] it was 88%. The same compound gave a pKi in experiment [3] of 9.25.
The like results for `COc1cc(N2C[C@@H]3CCNC[C@@H]32)cnc1Br` were, in that order, 5.53, 5.77, 65%, 84% and 8.85.
Turning to `O=[N+]([O-])c1ccc(N2CC[C@@H]3CN[C@@H]3C2)cn1`, the pEC50 is 6.08 in experiment [1] and 6.96 in experiment [5]. For the same compound, the values for the Activity in experiment [2] and in experiment [4] were 114% and 98%, respectively. In addition, in experiment [3], the negative logarithm of the Ki (pKi) is 8.62. In addition, the outcome in experiment [6] was Active.
As for `N#Cc1cc(N2C[C@@H]3CCNC[C@@H]32)cnc1Br`, the values for the negative logarithm of the EC50 (pEC50) in experiment [1] and in experiment [5] were 6.10 and 6.96, respectively. In addition, the Activity in experiment [2] stood at 104%; in experiment [4], 88%. Further, the pKi in experiment [3] was 10.15. In experiment [6], the outcome was Active.
Take `COc1ccc(N2CC[C@@H]3CN[C@@H]3C2)cn1`: the results for the negative logarithm of the EC50 (pEC50) in experiment [1] and in experiment [5] were 5.62 and 5.30, respectively. The figures for the Activity in experiment [2] and in experiment [4] were 54% and 93%, respectively. Besides, in experiment [3], the negative-log Ki (pKi) is 8.57.
Regarding `COc1cncc(N2C[C@@H]3CCNC[C@@H]32)c1`, the negative-log EC50 (pEC50) in experiment [1] is 4.20; in experiment [5], 5.11. Further, the Activity was found to be 44% in experiment [2] and 47% in experiment [4]. Moreover, in experiment [3], the negative logarithm of the Ki (pKi) is 8.36.
Regarding `COc1ccc(N2CC[C@H]3CN[C@H]3C2)cn1`, the negative logarithm of the EC50 (pEC50) in experiment [1] is 5.96; in experiment [5] it was 5.66. In addition, the Activity in experiment [2] amounted to 96%; in experiment [4], 88%. The compound further showed a negative logarithm of the Ki (pKi) in experiment [3] of 9.01.
On to `c1cncc(N2C[C@@H]3CCNC[C@@H]32)c1`, for which the values for the pEC50 in experiment [1] and in experiment [5] were 5.77 and 6.39, respectively. The figures for the Activity in experiment [2] and in experiment [4] were 105% and 98%, respectively. Also, in experiment [6], the outcome was Active.
As to `CCOc1cncc(N2CC[C@H]3CN[C@H]3C2)c1`, the pEC50 in experiment [1] is 6.91; in experiment [5] it was 6.21. Also, the results for the Activity in experiment [2] and in experiment [4] were 116% and 103%, respectively. The negative-log Ki (pKi) in experiment [3] was 10.28.
The corresponding values for `COc1cc(N2CC[C@@H]3CN[C@@H]3C2)cnc1Br` are 6.80, 6.44, 40%, 108% and 10.16.
With `Clc1ccc(N2C[C@H]3CCNC[C@H]32)cn1`, the values for the negative-log EC50 (pEC50) in experiment [1] and in experiment [5] were 5.82 and 6.67, respectively. Also, the Activity stood at 102% in experiment [2] and 93% in experiment [4]. In experiment [3], this compound showed a negative-log Ki (pKi) of 9.10.
`N/C(=N/O)c1cncc(N2CC[C@@H]3CN[C@@H]3C2)c1`: the figures for the Activity in experiment [2] and in experiment [4] were 194% and 99%, respectively.
As for `Cc1cc(N2CC[C@H]3CN[C@H]3C2)cnc1Cl`, the negative-log EC50 (pEC50) in experiment [1] and in experiment [5] was 8.14 throughout. The values for the Activity in experiment [2] and in experiment [4] were 207% and 123%, respectively. The same compound showed a pKi in experiment [3] of 10.51.
For `N#Cc1cncc(N2C[C@H]3CCNC[C@H]32)c1`, the pEC50 in experiment [1] is 5.25; in experiment [5], 5.71. Further, the values for the Activity in experiment [2] and in experiment [4] were 83% and 71%, respectively. The compound also showed a pKi in experiment [3] of 8.59.
The like results for `Clc1ccc(N2CC[C@@H]3CN[C@@H]3C2)cn1` were, in that order, 7.60, 7.62, 130%, 125% and 10.49.
Turning to `NC(=O)c1cc(N2C[C@@H]3CCNC[C@@H]32)cnc1Br`, the pEC50 in experiment [1] is 4.63; in experiment [5], 5.83. The Activity in experiment [2] is 75%; in experiment [4] it was 73%. This compound gave a pKi in experiment [3] of 8.55.
For the compound `Clc1cc(N2C[C@@H]3CCNC[C@@H]32)cnc1Cl`, the pEC50 was 5.39 in experiment [1] and 6.57 in experiment [5]. Further, the Activity stood at 60% in experiment [2] and 69% in experiment [4]. Moreover, the outcome in experiment [6] was Active.
Turning to `O=[N+]([O-])c1ccc(N2CC[C@H]3CN[C@H]3C2)cn1`, the values for the negative-log EC50 (pEC50) in experiment [1] and in experiment [5] were 6.41 and 7.00, respectively. The figures for the Activity in experiment [2] and in experiment [4] were 196% and 119%, respectively. The compound also had a pKi in experiment [3] of 8.82.
As for `c1cncc(N2C[C@H]3CCNC[C@H]32)c1`, the pEC50 in experiment [1] was 5.81; in experiment [5] it was 5.85. The Activity was 84% in experiment [2] and 97% in experiment [4].
Regarding `COc1cc(N2C[C@H]3CCNC[C@H]32)cnc1Br`, the figures for the negative-log EC50 (pEC50) in experiment [1] and in experiment [5] were 6.69 and 6.70, respectively. Also, the Activity in experiment [2] turned out to be 120%; in experiment [4] it was 98%. Further, the negative-log Ki (pKi) in experiment [3] is 10.07.
With `N#Cc1cc(N2C[C@H]3CCNC[C@H]32)cnc1Br`, the negative logarithm of the EC50 (pEC50) in experiment [1] is 6.62; in experiment [5] it was 6.76. Moreover, the Activity in experiment [2] stood at 157%; in experiment [4], 100%. Moreover, the pKi in experiment [3] was 9.52.
For the compound `c1cncc(N2CC[C@H]3CN[C@H]3C2)c1`, the results for the pEC50 in experiment [1] and in experiment [5] were 7.32 and 7.15, respectively. In addition, the Activity in experiment [2] was 171%; in experiment [4], 121%. In experiment [3], this compound had a negative logarithm of the Ki (pKi) of 10.46.
The like results for `c1cncc(N2CC[C@@H]3CN[C@@H]3C2)c1` were, in that order, 6.59, 6.48, 112%, 118% and 10.23.
In the case of `CCOc1cncc(N2CC[C@@H]3CN[C@@H]3C2)c1`, the pEC50 was 5.55 in experiment [1] and 5.87 in experiment [5]. Also, the Activity in experiment [2] was found to be 18%; in experiment [4], 86%. For the same compound, the pKi in experiment [3] is 9.80.
As to `Clc1cc(N2C[C@H]3CCNC[C@H]32)cnc1Cl`, the negative-log EC50 (pEC50) in experiment [1] was 6.47; in experiment [5], 6.75. The Activity in experiment [2] worked out at 127%; in experiment [4], 103%. This compound also showed a pKi in experiment [3] of 9.52.
On to `NC(=O)c1cc(N2C[C@H]3CCNC[C@H]32)cnc1Br`, for which the negative logarithm of the EC50 (pEC50) in experiment [1] is 5.13; in experiment [5], 6.47. Besides, the Activity was 133% in experiment [2] and 90% in experiment [4].
With `c1ncc(N2C[C@@H]3CCNC[C@@H]32)cn1` (single isomer, unassigned), the pEC50 was 5.00 in experiment [1] and 5.07 in experiment [5]. In addition, the Activity in experiment [2] was found to be 104%; in experiment [4], 93%. In experiment [3], the pKi is 8.80.
The like results for `c1ncc(N2CC[C@H]3CN[C@H]3C2)cn1` were, in that order, 6.97, 6.46, 181%, 121% and 10.40.

Usually pEC50 stands for −log10 of the EC50, conventionally taken in molar units. In general, pKi refers to −log10 of the Ki, conventionally taken in molar units. Low values mean a high Ki, high ones a low Ki.

The values above are taken from ChEMBL document CHEMBL1138225, “Synthesis and structure-activity relationships of 3,8-diazabicyclo[4.2.0]octane ligands, potent nicotinic acetylcholine receptor agonists” (J Med Chem, 2006).
